According to US20150031102A1, “METHODS AND COMPOSITIONS FOR ENHANCED PRODUCTION OF BUTANOL BY CLOSTRIDIA” (Butrolix LLC, priority 2012, published 2015):

Test system: C. acetobutylicum
Assay: Continuous culture, 2.5 L, dilution rate 0.01 per hour, 20 days (butanol, residual glucose, optical density, pH, yield, productivity)
Type: cell-based, Clostridium acetobutylicum
Conditions: for Productivity / Yield / Butanol: 50 nM peptide, Table 54; for Butanol: average ± SD of triplicate samples
Protocol: Lastly, 2.5 L continuous culture studies were conducted using the optimum peptide treatment level that was determined by the sequential batch transfer experiments. An untreated and a peptide-treated culture were grown in parallel, identical vessels with identical dilution rates for 20 days. The continuous cultures were initiated by inoculating 2.25 L of sterile medium in each culture vessel using 250 mL of peptide-treated and untreated batch cultures that had been grown for 24 hours. The batch cultures used as inoculum were the third of sequential batch transfer cultures, which made inoculation of the continuous cultures the fourth sequential transfer. After inoculation, the continuous cultures were grown for 24 hours before beginning to feed fresh medium at a rate of 0.01 volumes per hour. Triplicate samples were taken from each continuous culture every 24 hours. Optical density of the replicates was measured and culture supernatants were recovered following centrifugation and analyzed later for butanol and residual glucose concentrations. The analyses were used to calculate yield and productivity of the cultures.
Clostridium acetobutylicum strain ATCC 824 was used in all experiments and the growth medium used for sequential batch transfer, time course, and continuous culture experiments contained yeast extract, casamino acids, L-cysteine, L-asparagine, phosphate buffer, trace minerals, and 6% glucose. What are believed to be quorum-sensing peptides that were used in the experiments were chemically synthesized peptides SEQ ID NO: 143 (amino acid sequence: SYPGWSW) and SEQ ID NO: 144 (amino acid sequence: ILILISG). Routine growth of the bacteria as well as the sequential batch and time course experiments were conducted in a Form a Scientific Model 1029 anaerobic gas chamber at 32° C. Continuous cultures were performed at 32° C. using duplicate New Brunswick Scientific BioFlo 3000 apparati with a dilution rate of 0.01 volume per hour, 75 rpm agitation, and nitrogen gas sparging. Optical density of culture samples was measured at 600 nm in a Beckman DU 600 series spectrophotometer and glucose was analyzed using a YSI Model 2700 Select Biochemistry Analyzer with internal glucose calibration. Butanol concentrations were determined by measuring experimental and standard samples using a Varian Saturn 3 Gas Chromatograph/Mass Spectrometer and calculating butanol concentrations using standard curves.
Data from continuous cultures using a 6% glucose medium in vessels with a working volume of 2.5 L run at a dilution rate of 0.01 per hour. Two vessels were run in parallel, one of which was treated with 50 nM of peptide SEQ ID NO: 143 and the other was untreated. The vessels were sparged continuously with nitrogen gas to maintain anaerobic conditions and were agitated at 75 rpm. On Day 0, the vessels were inoculated with a 1/10 volume (250 mL) of overnight cultures that were either treated with peptide or untreated, and that were the third transfer of the cultures, which made inoculation of the continuous cultures the fourth transfer. Triplicate samples were collected aseptically from each vessel immediately after inoculation and every 24 hours thereafter. The cultures were allowed to grow for 24 hours prior to beginning to feed fresh medium, and were maintained for 20 days each, without pH control. The optical density of each sample was measured immediately at 600 nm, the samples were centrifuged to remove cells, and the cell-free supernatants were frozen for later analysis. A representative experiment is shown in FIG. 19 and Tables 34 and 35.
Using the optimum peptide treatment level that was determined by the sequential batch transfer experiments, 2.5 L continuous culture studies were conducted. An untreated and a peptide-treated culture were grown in parallel, identical vessels using the same dilution rates for 20 days for each of the peptides BP110517 and BP1106213. […]

[1] = 24 hour period preceding day 10
[2] = 24 hour period preceding day 11
[3] = 24 hour period preceding day 12
[4] = 24 hour period preceding day 13
[5] = 24 hour period preceding day 14
[6] = 24 hour period preceding day 15
[7] = 24 hour period preceding day 16
[8] = 24 hour period preceding day 17
[9] = 24 hour period preceding day 18
[10] = 24 hour period preceding day 19
[11] = 24 hour period preceding day 20

For “ILILISG (Derived from Clostridium acetobutylicum SEQ ID NO: 110) [peptide SEQ ID NO: 144]”, the “Butanol content compared with the untreated culture” value (50 nM BP1106213, starting at day 2 and throughout the rest of the study) was “untreated culture remained significantly higher”, the pH (50 nM BP1106213 and its untreated control, after the first 4 days, for the duration of both cultures) was ~4.2 and the “Optical density (600 nm)” value (50 nM BP1106213 and its untreated control, almost the complete duration of the cultures) was “above 2.0”. The Glucose consumption (50 nM BP1106213 and untreated, day three through the end of the study) was “entirely consumed”, the Productivity (24 hour period preceding day 1) was 0.53 g Butanol/L-h and the Yield (24 hour period preceding day 1) was 0.19 g Butanol/g Glucose. It also gave a Productivity (24 hour period preceding day 2) of −0.17 g Butanol/L-h, a Yield (24 hour period preceding day 2) of −0.28 g Butanol/g Glucose and a Productivity (24 hour period preceding day 3) of 0.07 g Butanol/L-h. For the same substance, the Yield (24 hour period preceding day 3) was 0.11 g Butanol/g Glucose, the Productivity (24 hour period preceding day 4) was 0.29 g Butanol/L-h and the Yield (24 hour period preceding day 4) was 0.46 g Butanol/g Glucose. The Productivity (24 hour period preceding day 5) was 0.24 g Butanol/L-h, the Yield (24 hour period preceding day 5) was 0.39 g Butanol/g Glucose and the Productivity (24 hour period preceding day 6) was 0.07 g Butanol/L-h. The Yield (24 hour period preceding day 6) was 0.11 g Butanol/g Glucose, the Productivity (24 hour period preceding day 7) was 0.14 g Butanol/L-h and the Yield (24 hour period preceding day 7) was 0.23 g Butanol/g Glucose. The Productivity (24 hour period preceding day 8) was 0.06 g Butanol/L-h, the Yield (24 hour period preceding day 8) was 0.10 g Butanol/g Glucose and the Productivity (24 hour period preceding day 9) was 0.07 g Butanol/L-h. It also gave a Yield (24 hour period preceding day 9) of 0.11 g Butanol/g Glucose, a Productivity [1] of 0.00 g Butanol/L-h and a Yield [1] of 0.01 g Butanol/g Glucose. The Productivity [2] was 0.20 g Butanol/L-h, the Yield [2] was 0.33 g Butanol/g Glucose and the Productivity [3] was 0.02 g Butanol/L-h. The Yield [3] was 0.04 g Butanol/g Glucose, the Productivity [4] was −0.11 g Butanol/L-h and the Yield [4] was −0.18 g Butanol/g Glucose. It also gave a Productivity [5] of 0.00 g Butanol/L-h, a Yield [5] of 0.00 g Butanol/g Glucose and a Productivity [6] of 0.03 g Butanol/L-h. It also gave a Yield [6] of 0.05 g Butanol/g Glucose, a Productivity [7] of 0.11 g Butanol/L-h and a Yield [7] of 0.17 g Butanol/g Glucose. For the same substance, the Productivity [8] was −0.01 g Butanol/L-h, the Yield [8] was −0.02 g Butanol/g Glucose and the Productivity [9] was 0.01 g Butanol/L-h. For the same substance, the Yield [9] was 0.01 g Butanol/g Glucose, the Productivity [10] was 0.06 g Butanol/L-h and the Yield [10] was 0.09 g Butanol/g Glucose. For the same substance, the Productivity [11] was 0.01 g Butanol/L-h, the Yield [11] was 0.01 g Butanol/g Glucose and the Butanol (day 0) was 0.6 ± 0.0 g/L. The Butanol (day 1) was 7.0 ± 0.5 g/L, the Butanol (day 2) was 8.2 ± 0.9 g/L and the Butanol (day 3) was 6.9 ± 0.6 g/L. It also gave a Butanol (day 4) of 5.0 ± 0.2 g/L, a Butanol (day 5) of 4.6 ± 0.3 g/L and a Butanol (day 6) of 5.2 ± 0.2 g/L. The Butanol (day 7) was 4.9 ± 0.2 g/L, the Butanol (day 8) was 5.6 ± 0.0 g/L and the Butanol (day 9) was 5.1 ± 0.1 g/L. It also gave a Butanol (day 10) of 5.1 ± 0.0 g/L, a Butanol (day 11) of 5.2 ± 0.2 g/L and a Butanol (day 12) of 5.1 ± 0.1 g/L. For the same substance, the Butanol (day 13) was 5.0 ± 0.1 g/L, the Butanol (day 14) was 5.4 ± 0.1 g/L and the Butanol (day 15) was 5.5 ± 0.1 g/L. It also gave a Butanol (day 16) of 5.5 ± 0.1 g/L, a Butanol (day 17) of 5.3 ± 0.1 g/L and a Butanol (day 18) of 5.1 ± 0.2 g/L. For the same substance, the Butanol (day 19) was 4.3 ± 0.2 g/L, the Butanol (day 20) was 2.9 ± 0.1 g/L and the “Effect on differentiation and butanol production” value (continuous cultures) was “strong inhibitor of differentiation and butanol production”.
